Laboratory results reported in ChEMBL document CHEMBL5465560, “Selectivity Literature for EUbOPEN Chemogenomic Library” (2024).

Legend:
[1] = target: T1, Ephrin type-B receptor 2 (Homo sapiens) (UniProt P29323); assay: Selectivity interaction (Millipore kinase profiler) EUB0000124b EPHB2; conditions: at 10 µM
T1 sequence (whole entry): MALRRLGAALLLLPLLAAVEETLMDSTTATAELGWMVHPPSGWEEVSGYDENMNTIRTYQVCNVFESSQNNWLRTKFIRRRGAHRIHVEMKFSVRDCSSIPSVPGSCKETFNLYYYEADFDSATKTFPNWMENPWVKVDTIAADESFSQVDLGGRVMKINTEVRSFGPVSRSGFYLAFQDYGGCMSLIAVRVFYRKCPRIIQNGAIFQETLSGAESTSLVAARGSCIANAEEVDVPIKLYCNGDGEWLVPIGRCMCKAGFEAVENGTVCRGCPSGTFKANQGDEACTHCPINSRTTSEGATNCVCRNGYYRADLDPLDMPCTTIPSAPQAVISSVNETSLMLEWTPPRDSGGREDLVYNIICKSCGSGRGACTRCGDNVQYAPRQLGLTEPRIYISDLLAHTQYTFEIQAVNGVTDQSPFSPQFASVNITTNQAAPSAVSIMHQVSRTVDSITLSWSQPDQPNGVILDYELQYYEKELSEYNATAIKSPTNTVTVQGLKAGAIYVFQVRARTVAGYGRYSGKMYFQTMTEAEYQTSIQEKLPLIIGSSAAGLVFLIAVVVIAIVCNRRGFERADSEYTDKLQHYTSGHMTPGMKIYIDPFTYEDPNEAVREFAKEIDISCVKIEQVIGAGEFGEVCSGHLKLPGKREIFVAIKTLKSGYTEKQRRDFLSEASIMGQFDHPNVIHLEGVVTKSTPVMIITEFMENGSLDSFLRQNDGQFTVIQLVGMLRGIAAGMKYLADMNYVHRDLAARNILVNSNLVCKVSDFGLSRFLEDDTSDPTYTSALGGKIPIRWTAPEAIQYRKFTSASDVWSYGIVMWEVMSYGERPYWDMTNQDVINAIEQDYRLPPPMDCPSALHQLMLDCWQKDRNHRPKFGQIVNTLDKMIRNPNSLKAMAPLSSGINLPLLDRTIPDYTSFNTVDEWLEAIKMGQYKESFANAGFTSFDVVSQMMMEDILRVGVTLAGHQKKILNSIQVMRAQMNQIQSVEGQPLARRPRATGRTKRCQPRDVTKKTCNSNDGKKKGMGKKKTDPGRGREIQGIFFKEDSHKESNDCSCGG

[2] = target: Tyrosine-protein kinase SYK (Homo sapiens, UniProt P43405); assay: Selectivity interaction (ActivX KiNativ screen (kinase selectivity in THP-1 cell lysates)) EUB0000639a SYK; assay type: subcellular; conditions: lysate, at 0.2 µM
[3] = target: Serine/threonine-protein kinase 33 (Homo sapiens) (UniProt Q9BYT3); assay: Selectivity interaction (Kinase panel (Invitrogen)) EUB0000639a STK33; conditions: at 200 nM
[4] = target: Mitogen-activated protein kinase kinase kinase 10 (Homo sapiens) (UniProt Q02779); assay: Selectivity interaction (KinomeScan (DiscoverX)) EUB0000695a MAP3K10; conditions: at 100 nM
[5] = target: Ribosomal protein S6 kinase alpha-4 (Homo sapiens) (UniProt O75676); assay: Selectivity interaction (KinomeScan (DiscoverX)) EUB0000695a RPS6KA4; conditions: at 100 nM
[6] = target: T2, Hormonally up-regulated neu tumor-associated kinase (Homo sapiens) (UniProt P57058); assay: Selectivity interaction (KinomeScan (DiscoverX)) EUB0000695a HUNK; conditions: at 100 nM
T2 sequence (whole entry): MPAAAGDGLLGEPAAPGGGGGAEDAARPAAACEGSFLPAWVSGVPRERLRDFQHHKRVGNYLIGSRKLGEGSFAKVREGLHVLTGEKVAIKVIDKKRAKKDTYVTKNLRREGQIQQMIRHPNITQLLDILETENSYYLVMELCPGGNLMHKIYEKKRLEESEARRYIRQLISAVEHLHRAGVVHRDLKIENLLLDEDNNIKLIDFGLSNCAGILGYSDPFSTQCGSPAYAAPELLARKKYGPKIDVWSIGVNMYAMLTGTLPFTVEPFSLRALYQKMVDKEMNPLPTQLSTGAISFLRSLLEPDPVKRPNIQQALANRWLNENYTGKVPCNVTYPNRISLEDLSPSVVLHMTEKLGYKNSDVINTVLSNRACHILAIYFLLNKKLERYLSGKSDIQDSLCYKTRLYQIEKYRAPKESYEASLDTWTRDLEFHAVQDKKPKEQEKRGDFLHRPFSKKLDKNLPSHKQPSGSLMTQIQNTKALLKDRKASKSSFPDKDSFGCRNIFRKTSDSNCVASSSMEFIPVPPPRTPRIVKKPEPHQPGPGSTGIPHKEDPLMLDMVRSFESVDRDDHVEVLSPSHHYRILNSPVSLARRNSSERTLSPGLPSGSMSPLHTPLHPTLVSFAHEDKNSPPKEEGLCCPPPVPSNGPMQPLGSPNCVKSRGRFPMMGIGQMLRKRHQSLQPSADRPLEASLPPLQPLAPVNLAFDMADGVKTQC

[7] = tested on: Epidermal growth factor receptor (Homo sapiens), P00533 [L858R]; conditions: at 10 µM
[8] = target: T3, Phosphatidylinositol 5-phosphate 4-kinase type-2 beta (Homo sapiens) (UniProt P78356); conditions: at 10 µM
T3 sequence (whole entry): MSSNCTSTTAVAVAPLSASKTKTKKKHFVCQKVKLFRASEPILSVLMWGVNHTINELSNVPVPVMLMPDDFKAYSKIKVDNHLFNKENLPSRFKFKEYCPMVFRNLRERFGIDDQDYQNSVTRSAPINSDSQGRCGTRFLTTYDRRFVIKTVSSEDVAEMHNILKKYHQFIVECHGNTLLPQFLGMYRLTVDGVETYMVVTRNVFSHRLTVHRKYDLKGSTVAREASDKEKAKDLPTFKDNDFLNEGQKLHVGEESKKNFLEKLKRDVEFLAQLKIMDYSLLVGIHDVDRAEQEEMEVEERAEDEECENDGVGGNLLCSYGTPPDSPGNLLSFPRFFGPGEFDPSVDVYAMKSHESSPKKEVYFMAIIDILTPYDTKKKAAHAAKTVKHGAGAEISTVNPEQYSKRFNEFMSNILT

[9] = target: Ephrin type-A receptor 2 (Homo sapiens) (UniProt P29317); assay: Selectivity interaction (KinomeScan (DiscoverX)) EUB0000045b EPHA2
[10] = target: Tyrosine-protein kinase receptor Tie-1 (Homo sapiens) (UniProt P35590); assay: Selectivity interaction (Ambit KINOMEscan and KiNATiv profiling in Jurkat cells) EUB0000090b TIE1; assay type: cell-based; conditions: at 1 µM
[11] = target: Proto-oncogene tyrosine-protein kinase ROS (Homo sapiens) (UniProt P08922); assay: Selectivity interaction (Kinase screening (Nanosyn)) EUB0000604a ROS1
Sequence of Proto-oncogene tyrosine-protein kinase ROS (Homo sapiens) (P08922 whole entry): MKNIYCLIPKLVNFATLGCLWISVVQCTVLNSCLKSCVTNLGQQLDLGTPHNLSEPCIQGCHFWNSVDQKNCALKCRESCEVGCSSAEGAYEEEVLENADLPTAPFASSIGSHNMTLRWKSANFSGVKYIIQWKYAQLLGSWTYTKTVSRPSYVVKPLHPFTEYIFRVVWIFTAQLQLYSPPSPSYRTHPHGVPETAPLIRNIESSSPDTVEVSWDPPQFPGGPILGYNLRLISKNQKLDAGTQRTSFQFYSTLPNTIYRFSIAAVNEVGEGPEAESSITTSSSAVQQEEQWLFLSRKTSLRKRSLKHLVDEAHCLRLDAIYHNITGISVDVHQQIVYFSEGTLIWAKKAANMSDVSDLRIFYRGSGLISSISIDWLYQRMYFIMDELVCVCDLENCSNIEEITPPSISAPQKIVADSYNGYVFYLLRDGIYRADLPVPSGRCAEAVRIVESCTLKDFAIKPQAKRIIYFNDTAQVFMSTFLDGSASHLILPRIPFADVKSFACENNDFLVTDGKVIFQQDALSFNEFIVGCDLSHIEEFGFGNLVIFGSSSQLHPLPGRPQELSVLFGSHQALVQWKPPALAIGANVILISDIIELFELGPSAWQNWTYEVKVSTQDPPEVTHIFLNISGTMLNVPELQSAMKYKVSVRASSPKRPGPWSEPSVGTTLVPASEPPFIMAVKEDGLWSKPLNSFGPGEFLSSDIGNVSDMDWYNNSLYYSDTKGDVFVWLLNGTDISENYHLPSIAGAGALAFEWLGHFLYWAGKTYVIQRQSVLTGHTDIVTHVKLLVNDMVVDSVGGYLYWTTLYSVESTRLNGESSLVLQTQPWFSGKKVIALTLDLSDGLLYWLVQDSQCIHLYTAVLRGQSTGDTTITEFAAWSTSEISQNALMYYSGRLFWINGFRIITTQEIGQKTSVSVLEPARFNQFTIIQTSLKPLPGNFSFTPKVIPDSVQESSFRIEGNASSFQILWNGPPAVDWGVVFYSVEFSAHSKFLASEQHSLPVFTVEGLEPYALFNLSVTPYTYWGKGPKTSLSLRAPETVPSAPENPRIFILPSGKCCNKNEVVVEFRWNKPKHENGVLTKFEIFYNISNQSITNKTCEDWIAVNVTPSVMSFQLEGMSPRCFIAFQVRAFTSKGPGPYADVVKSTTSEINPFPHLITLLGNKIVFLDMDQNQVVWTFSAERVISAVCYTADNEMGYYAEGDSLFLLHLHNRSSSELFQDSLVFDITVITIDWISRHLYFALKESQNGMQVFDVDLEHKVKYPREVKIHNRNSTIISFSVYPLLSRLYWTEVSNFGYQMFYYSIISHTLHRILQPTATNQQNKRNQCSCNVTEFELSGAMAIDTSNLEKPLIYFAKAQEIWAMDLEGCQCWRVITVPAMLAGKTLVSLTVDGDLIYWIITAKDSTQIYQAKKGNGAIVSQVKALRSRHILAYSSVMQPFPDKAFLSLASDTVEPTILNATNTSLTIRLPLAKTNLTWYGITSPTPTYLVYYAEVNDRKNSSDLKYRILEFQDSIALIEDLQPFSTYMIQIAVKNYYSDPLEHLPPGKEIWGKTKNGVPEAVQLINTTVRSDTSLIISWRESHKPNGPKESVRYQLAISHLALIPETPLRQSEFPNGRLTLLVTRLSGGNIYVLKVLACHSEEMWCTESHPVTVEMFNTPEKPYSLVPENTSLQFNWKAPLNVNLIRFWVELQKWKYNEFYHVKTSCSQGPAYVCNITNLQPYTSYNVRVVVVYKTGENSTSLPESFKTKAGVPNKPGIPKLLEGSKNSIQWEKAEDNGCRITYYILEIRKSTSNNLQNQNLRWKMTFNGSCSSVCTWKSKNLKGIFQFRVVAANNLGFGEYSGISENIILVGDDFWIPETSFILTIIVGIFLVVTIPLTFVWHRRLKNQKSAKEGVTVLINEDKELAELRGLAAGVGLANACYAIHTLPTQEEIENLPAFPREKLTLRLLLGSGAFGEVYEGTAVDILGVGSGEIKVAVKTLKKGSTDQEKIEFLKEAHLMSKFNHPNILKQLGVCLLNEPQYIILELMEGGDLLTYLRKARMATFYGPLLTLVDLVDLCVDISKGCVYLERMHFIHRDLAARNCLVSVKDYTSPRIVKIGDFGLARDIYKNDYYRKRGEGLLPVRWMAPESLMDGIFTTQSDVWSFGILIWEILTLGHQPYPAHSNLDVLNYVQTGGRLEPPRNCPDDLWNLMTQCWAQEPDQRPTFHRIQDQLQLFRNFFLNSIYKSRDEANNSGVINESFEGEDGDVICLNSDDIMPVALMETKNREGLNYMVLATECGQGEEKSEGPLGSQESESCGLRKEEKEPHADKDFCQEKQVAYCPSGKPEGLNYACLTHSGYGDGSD

Sequence of Ephrin type-A receptor 2 (Homo sapiens) (P29317 whole entry): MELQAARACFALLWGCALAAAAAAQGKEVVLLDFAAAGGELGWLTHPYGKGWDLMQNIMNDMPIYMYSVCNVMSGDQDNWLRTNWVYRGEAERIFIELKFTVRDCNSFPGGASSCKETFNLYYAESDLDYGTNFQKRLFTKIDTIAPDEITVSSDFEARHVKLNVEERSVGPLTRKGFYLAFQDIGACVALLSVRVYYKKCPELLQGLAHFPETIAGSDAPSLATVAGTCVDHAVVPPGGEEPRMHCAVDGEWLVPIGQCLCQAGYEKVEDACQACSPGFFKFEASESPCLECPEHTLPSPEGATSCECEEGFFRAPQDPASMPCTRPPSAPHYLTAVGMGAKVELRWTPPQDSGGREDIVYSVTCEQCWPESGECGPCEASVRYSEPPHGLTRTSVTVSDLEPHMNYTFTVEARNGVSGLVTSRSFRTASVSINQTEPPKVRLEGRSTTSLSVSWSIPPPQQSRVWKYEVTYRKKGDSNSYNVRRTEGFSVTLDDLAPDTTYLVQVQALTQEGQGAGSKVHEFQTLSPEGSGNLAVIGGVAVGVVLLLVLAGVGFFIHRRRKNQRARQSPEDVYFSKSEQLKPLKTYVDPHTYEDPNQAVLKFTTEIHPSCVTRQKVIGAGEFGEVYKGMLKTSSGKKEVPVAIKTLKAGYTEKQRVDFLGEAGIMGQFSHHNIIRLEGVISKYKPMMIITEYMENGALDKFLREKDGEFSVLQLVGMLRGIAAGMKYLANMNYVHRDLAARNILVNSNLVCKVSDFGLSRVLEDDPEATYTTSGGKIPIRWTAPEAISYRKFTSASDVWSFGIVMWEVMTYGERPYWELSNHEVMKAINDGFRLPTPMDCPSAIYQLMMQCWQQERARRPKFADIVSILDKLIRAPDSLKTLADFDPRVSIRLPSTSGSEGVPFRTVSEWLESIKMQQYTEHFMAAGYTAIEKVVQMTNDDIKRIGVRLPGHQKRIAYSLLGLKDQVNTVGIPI
Sequence of Mitogen-activated protein kinase kinase kinase 10 (Homo sapiens) (Q02779 whole entry, looked up): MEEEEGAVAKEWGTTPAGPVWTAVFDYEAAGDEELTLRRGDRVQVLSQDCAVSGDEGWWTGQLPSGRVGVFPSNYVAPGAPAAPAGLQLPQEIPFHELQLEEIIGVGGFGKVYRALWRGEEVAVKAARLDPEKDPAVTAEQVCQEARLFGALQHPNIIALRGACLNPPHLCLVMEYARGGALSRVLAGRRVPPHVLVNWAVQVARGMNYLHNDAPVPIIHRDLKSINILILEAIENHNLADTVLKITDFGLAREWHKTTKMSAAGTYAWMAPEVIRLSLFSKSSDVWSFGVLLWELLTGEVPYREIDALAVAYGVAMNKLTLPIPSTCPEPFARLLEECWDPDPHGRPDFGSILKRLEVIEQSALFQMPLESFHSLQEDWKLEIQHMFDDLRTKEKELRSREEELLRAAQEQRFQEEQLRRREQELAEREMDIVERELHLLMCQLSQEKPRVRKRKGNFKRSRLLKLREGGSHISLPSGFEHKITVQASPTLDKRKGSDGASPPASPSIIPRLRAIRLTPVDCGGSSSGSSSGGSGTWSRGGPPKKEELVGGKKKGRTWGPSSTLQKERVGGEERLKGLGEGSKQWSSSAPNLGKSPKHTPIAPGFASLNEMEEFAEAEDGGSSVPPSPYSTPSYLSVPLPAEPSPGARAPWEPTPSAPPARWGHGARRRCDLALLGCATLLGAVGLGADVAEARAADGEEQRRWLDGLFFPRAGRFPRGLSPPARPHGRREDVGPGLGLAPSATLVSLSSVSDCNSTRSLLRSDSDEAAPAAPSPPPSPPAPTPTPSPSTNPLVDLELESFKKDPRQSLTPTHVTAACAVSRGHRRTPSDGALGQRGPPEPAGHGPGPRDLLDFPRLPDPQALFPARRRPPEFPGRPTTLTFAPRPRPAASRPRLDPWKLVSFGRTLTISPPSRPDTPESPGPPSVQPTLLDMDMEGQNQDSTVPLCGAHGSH
Sequence of Ribosomal protein S6 kinase alpha-4 (Homo sapiens) (O75676 whole entry, looked up): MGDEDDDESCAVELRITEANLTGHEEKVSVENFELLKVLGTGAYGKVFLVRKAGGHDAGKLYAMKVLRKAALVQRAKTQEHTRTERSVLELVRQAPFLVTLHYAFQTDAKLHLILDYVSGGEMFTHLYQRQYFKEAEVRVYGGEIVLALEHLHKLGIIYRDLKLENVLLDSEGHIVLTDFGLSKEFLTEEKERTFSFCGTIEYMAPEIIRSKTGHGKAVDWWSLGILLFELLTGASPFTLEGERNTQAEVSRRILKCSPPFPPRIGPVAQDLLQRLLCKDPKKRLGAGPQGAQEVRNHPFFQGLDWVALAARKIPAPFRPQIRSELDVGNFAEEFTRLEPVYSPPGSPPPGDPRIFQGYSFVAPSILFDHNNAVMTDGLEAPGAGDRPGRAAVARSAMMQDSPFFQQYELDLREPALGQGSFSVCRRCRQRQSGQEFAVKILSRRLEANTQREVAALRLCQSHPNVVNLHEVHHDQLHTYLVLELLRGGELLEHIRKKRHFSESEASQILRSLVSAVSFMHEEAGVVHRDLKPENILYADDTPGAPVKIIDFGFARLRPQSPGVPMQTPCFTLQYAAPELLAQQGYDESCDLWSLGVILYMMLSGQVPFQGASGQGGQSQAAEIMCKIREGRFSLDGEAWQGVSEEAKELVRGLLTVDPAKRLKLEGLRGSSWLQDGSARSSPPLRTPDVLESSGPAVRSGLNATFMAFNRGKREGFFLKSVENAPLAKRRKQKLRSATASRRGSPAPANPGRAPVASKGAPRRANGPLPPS

CC(=O)Nc1cccc(-n2c(=O)n(C3CC3)c(=O)c3c(Nc4ccc(I)cc4F)n(C)c(=O)c(C)c32)c1
% of control [1]: 107%

CC[C@@H]1[C@H](F)C(=O)N[C@@H]1COc1nccc2cc(C(N)=O)c(OC)cc12 [ZIMLOVISERTIB]
% of inhibition [2]: 9.3%
% of inhibition [3]: 6.96%

Cc1cc(F)c(C(=O)Nc2cccc(-c3nncn3C(C)C)n2)cc1-n1cnc(C2CC2)c1
% of control [4]: 100%
% of control [5]: 69%
% of control [6]: 100%

COCC(=O)NC/C=C/c1ccc2ncnc(Nc3ccc(Oc4ccc(C)nc4)c(C)c3)c2c1 [CP-724714]
% of control [7]: 0.6%
% of control [8]: 100%

C=CC(=O)Nc1cc(-n2c(=O)ccc3cnc4ccc(-c5ccc(NS(C)(=O)=O)cc5)cc4c32)ccc1C
% of control ([9]; at 1 µM): 100%
% of control ([9]; at 10 µM): 100%

CN(C)C/C=C/C(=O)Nc1ccc(C(=O)N2CCCC(Nc3ncc(Cl)c(-c4c[nH]c5ccccc45)n3)C2)cc1 (configuration not stated)
% of control [10]: 96%

Cc1cnc(Nc2ccc(F)cc2Cl)nc1-c1c[nH]c(C(=O)N[C@H](CO)c2cccc(Cl)c2)c1
% of inhibition [11]: 3%
